Data as given in the NIST ThermoML archive (doi:10.1016/j.jct.2019.02.028).

Experiment: xn = mol fraction of the nth substance listed
Conditions: Gas, Burnett expansion method

C=C(F)C(F)(F)F [2,3,3,3-tetrafluoro-1-propene] + FCF
Conditions	mass density [kg/m3]
333.59 K, 860.21 kPa, x2 = 0.698	23.99
333.59 K, 1119 kPa, x2 = 0.259	46.7
333.59 K, 1128.1 kPa, x2 = 0.449	40.52
333.59 K, 1537.9 kPa, x2 = 0.259	70.09
333.6 K, 552.32 kPa, x2 = 0.874	12.52
333.6 K, 589.81 kPa, x2 = 0.698	15.97
333.61 K, 804.94 kPa, x2 = 0.874	18.8
333.61 K, 1164.8 kPa, x2 = 0.874	28.24
333.61 K, 1308.2 kPa, x2 = 0.119	63.18
333.64 K, 1653.6 kPa, x2 = 0.874	42.42
338.52 K, 549.73 kPa, x2 = 0.449	17.96
338.52 K, 1260 kPa, x2 = 0.698	36.03
338.52 K, 1772.2 kPa, x2 = 0.698	54.11
338.52 K, 2408.6 kPa, x2 = 0.698	81.28
338.53 K, 875.76 kPa, x2 = 0.698	23.99
338.53 K, 960.84 kPa, x2 = 0.119	42.01
338.53 K, 1150.8 kPa, x2 = 0.449	40.51
338.53 K, 2177.3 kPa, x2 = 0.449	91.55
338.54 K, 554.13 kPa, x2 = 0.259	20.7
338.54 K, 801.95 kPa, x2 = 0.449	26.97
338.54 K, 1788.2 kPa, x2 = 0.119	94.94
338.54 K, 2337.3 kPa, x2 = 0.874	63.7
338.54 K, 3099.5 kPa, x2 = 0.698	122
338.54 K, 3099.9 kPa, x2 = 0.874	96.05
338.54 K, 3850.5 kPa, x2 = 0.874	144.78
338.55 K, 671.73 kPa, x2 = 0.119	27.97
338.55 K, 1615.3 kPa, x2 = 0.449	60.93
338.55 K, 1689.4 kPa, x2 = 0.874	42.41
338.56 K, 599.87 kPa, x2 = 0.698	15.97
338.56 K, 803.81 kPa, x2 = 0.259	31.09
338.56 K, 1143.1 kPa, x2 = 0.259	46.69
338.56 K, 1187 kPa, x2 = 0.874	28.23
338.56 K, 1577.4 kPa, x2 = 0.259	70.08
338.56 K, 2083.1 kPa, x2 = 0.259	105.4
338.57 K, 819.08 kPa, x2 = 0.874	18.8
338.57 K, 1339.9 kPa, x2 = 0.119	63.15
338.61 K, 561.65 kPa, x2 = 0.874	12.52
343.46 K, 1811.6 kPa, x2 = 0.698	54.1
343.47 K, 558.86 kPa, x2 = 0.449	17.95
343.47 K, 2473.8 kPa, x2 = 0.698	81.25
343.48 K, 1650.8 kPa, x2 = 0.449	60.9
343.48 K, 3195 kPa, x2 = 0.874	95.98
343.49 K, 609.66 kPa, x2 = 0.698	15.97
343.49 K, 980.04 kPa, x2 = 0.119	42
343.49 K, 1173.6 kPa, x2 = 0.449	40.5
343.49 K, 1284.8 kPa, x2 = 0.698	36.02
343.5 K, 815.99 kPa, x2 = 0.449	26.96
343.5 K, 1724.4 kPa, x2 = 0.874	42.4
343.5 K, 1840.8 kPa, x2 = 0.119	94.9
343.5 K, 2238.7 kPa, x2 = 0.449	91.51
343.5 K, 2312 kPa, x2 = 0.119	142.7
343.5 K, 3209.6 kPa, x2 = 0.698	121.97
343.51 K, 683.81 kPa, x2 = 0.119	27.96
343.51 K, 891.35 kPa, x2 = 0.698	23.98
343.51 K, 1370.9 kPa, x2 = 0.119	63.13
343.51 K, 1616.3 kPa, x2 = 0.259	70.08
343.51 K, 2395 kPa, x2 = 0.874	63.68
343.51 K, 2864.8 kPa, x2 = 0.449	137.45
343.51 K, 4012.3 kPa, x2 = 0.874	144.62
343.52 K, 1167 kPa, x2 = 0.259	46.68
343.52 K, 2146.2 kPa, x2 = 0.259	105.38
343.54 K, 563.91 kPa, x2 = 0.259	20.69
343.54 K, 833.17 kPa, x2 = 0.874	18.79
343.54 K, 1209.2 kPa, x2 = 0.874	28.23
343.55 K, 818.98 kPa, x2 = 0.259	31.08
343.56 K, 570.8 kPa, x2 = 0.874	12.51
348.39 K, 1850.8 kPa, x2 = 0.698	54.08
348.42 K, 568.01 kPa, x2 = 0.449	17.95
348.42 K, 1308.9 kPa, x2 = 0.698	36.01
348.42 K, 2538.2 kPa, x2 = 0.698	81.23
348.43 K, 695.54 kPa, x2 = 0.119	27.95
348.43 K, 1196 kPa, x2 = 0.449	40.49
348.43 K, 3289.2 kPa, x2 = 0.874	95.91
348.44 K, 619.54 kPa, x2 = 0.698	15.96
348.45 K, 906.67 kPa, x2 = 0.698	23.97
348.45 K, 999.4 kPa, x2 = 0.119	41.99
348.45 K, 1401.8 kPa, x2 = 0.119	63.11
348.45 K, 1687.6 kPa, x2 = 0.449	60.87
348.45 K, 1759.4 kPa, x2 = 0.874	42.38
348.45 K, 1892.6 kPa, x2 = 0.119	94.85
348.45 K, 2299.3 kPa, x2 = 0.449	91.46
348.45 K, 2405.8 kPa, x2 = 0.119	142.61
348.45 K, 3317.7 kPa, x2 = 0.698	121.94
348.46 K, 573.31 kPa, x2 = 0.259	20.69
348.46 K, 830.53 kPa, x2 = 0.449	26.96
348.46 K, 1654.8 kPa, x2 = 0.259	70.07
348.46 K, 2452 kPa, x2 = 0.874	63.66
348.46 K, 2967.9 kPa, x2 = 0.449	137.38
348.47 K, 833.57 kPa, x2 = 0.259	31.08
348.47 K, 847.11 kPa, x2 = 0.874	18.79
348.47 K, 1190.6 kPa, x2 = 0.259	46.68
348.47 K, 2210.4 kPa, x2 = 0.259	105.36
348.47 K, 4171.1 kPa, x2 = 0.874	144.45
348.48 K, 1231.2 kPa, x2 = 0.874	28.22
348.51 K, 579.9 kPa, x2 = 0.874	12.51
353.35 K, 1889.8 kPa, x2 = 0.698	54.07
353.37 K, 1218.4 kPa, x2 = 0.449	40.48
353.37 K, 2601.9 kPa, x2 = 0.698	81.21
353.38 K, 577.17 kPa, x2 = 0.449	17.94
353.38 K, 1943.6 kPa, x2 = 0.119	94.8
353.38 K, 3382.4 kPa, x2 = 0.874	95.84
353.39 K, 629.39 kPa, x2 = 0.698	15.96
353.39 K, 707.68 kPa, x2 = 0.119	27.94
353.39 K, 922.11 kPa, x2 = 0.698	23.97
353.39 K, 1432.5 kPa, x2 = 0.119	63.08
353.39 K, 1723.8 kPa, x2 = 0.449	60.85
353.39 K, 2359.1 kPa, x2 = 0.449	91.42
353.39 K, 3068.7 kPa, x2 = 0.449	137.31
353.4 K, 582.53 kPa, x2 = 0.259	20.69
353.4 K, 844.78 kPa, x2 = 0.449	26.95
353.4 K, 1018.6 kPa, x2 = 0.119	41.97
353.4 K, 1333.5 kPa, x2 = 0.698	36
353.4 K, 1794.1 kPa, x2 = 0.874	42.37
353.4 K, 2493.2 kPa, x2 = 0.119	142.52
353.4 K, 2508.3 kPa, x2 = 0.874	63.64
353.4 K, 3424.3 kPa, x2 = 0.698	121.92
353.41 K, 1213.9 kPa, x2 = 0.259	46.67
353.41 K, 1693 kPa, x2 = 0.259	70.07
353.41 K, 2895.5 kPa, x2 = 0.259	158.94
353.41 K, 4232.8 kPa, x2 = 0.698	183.2
353.41 K, 4326.6 kPa, x2 = 0.874	144.29
353.42 K, 848.3 kPa, x2 = 0.259	31.07
